# Experimental data from US12252484B2, “Pyrazolopyridine compounds for the treatment of autoimmune disease” (Hoffmann-La Roche Inc., priority 2018, dated 2025).
# Biological target: T1, human TLR7 (Homo sapiens, UniProt Q9NYK1)
# T1 sequence (Q9NYK1 27-1049): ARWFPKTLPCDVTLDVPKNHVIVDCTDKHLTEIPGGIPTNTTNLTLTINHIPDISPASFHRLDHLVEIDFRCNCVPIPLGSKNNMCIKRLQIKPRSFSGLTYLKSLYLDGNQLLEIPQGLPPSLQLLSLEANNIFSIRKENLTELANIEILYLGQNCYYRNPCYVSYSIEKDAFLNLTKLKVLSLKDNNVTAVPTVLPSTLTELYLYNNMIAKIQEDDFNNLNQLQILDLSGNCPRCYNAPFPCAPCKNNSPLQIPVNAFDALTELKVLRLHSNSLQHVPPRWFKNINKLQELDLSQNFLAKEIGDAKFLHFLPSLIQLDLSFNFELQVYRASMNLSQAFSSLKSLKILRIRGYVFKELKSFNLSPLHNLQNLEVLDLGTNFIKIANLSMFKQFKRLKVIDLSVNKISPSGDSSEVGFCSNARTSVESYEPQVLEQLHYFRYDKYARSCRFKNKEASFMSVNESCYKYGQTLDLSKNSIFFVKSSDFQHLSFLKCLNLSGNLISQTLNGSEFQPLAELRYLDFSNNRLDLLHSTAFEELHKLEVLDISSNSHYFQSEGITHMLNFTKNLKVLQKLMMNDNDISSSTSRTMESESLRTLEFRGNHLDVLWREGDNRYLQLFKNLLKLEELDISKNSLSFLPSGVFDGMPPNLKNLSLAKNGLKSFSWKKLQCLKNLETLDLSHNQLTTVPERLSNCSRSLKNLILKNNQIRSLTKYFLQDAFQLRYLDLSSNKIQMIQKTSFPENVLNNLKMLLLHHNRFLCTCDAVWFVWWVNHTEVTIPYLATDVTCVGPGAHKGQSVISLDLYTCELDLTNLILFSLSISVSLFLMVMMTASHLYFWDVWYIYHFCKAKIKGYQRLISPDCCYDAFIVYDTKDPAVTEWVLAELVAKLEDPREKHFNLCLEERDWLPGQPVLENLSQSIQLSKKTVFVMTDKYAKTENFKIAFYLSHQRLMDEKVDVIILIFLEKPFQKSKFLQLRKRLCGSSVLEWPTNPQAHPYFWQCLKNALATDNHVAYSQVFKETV
# Test: HEK293-Blue-hTLR-7 cells assay (SEAP reporter, R848 stimulation)
# Assay type: cell-based
# Settings: not given
# Method: The following tests were carried out in order to determine the activity of the compounds of formula (I) in HEK293-Blue-hTLR-7/8/9 cells assay.
# HEK293-Blue-hTLR-7 Cells Assay:
# A stable HEK293-Blue-hTLR-7 cell line was purchased from InvivoGen (Cat. #: hkb-htlr7, San Diego, California, USA). These cells were originally designed for studying the stimulation of human TLR7 by monitoring the activation of NF-κB. A SEAP (secreted embryonic alkaline phosphatase) reporter gene was placed under the control of the IFN-β minimal promoter fused to five NF-κB and AP-1-binding sites. The SEAP was induced by activating NF-κB and AP-1 via stimulating HEK-Blue hTLR7 cells with TLR7 ligands. Therefore the reporter expression was declined by TLR7 antagonist under the stimulation of a ligand, such as R848 (Resiquimod), for incubation of 20 hrs. The cell culture supernatant SEAP reporter activity was determined using QUANTI-Blue™ kit (Cat. #: rep-qb1, Invivogen, San Diego, Ca, USA) at a wavelength of 640 nm, a detection medium that turns purple or blue in the presence of alkaline phosphatase.
# HEK293-Blue-hTLR7 cells were incubated at a density of 250,000˜450,000 cells/mL in a volume of 170 μL in a 96-well plate in Dulbecco's Modified Eagle's medium (DMEM) containing 4.5 g/L glucose, 50 U/mL penicillin, […], […], 2 mM L-glutamine, 10% (v/v) heat-inactivated fetal bovine serum with addition of 20 μL test compound in a serial dilution in the presence of final DMSO at 1% and 10 μL of 20 uM R848 in above DMEM, perform incubation under 37° C. in a CO2 incubator for 20 hrs. Then 20 μL of the supernatant from each well was incubated with 180 μL Quanti-blue substrate solution at 37° C. for 2 hrs and the absorbance was read at 620˜655 nm using a spectrophotometer. The signalling pathway that TLR7 activation leads to downstream NF-κB activation has been widely accepted, and therefore similar reporter assay was modified for evaluating TLR7 antagonist.
row,Compound,IC50
1,"C[C@@H]1CN(c2ccc(C#N)n3nccc23)C[C@H](C(=O)NC2CC3CCCC(C2)N3C)O1 (stereo partly drawn) [Example 35, (2R,6R)-4-(7-cyanopyrazolo[1,5-a]pyridin-4-yl)-6-methyl-N-(9-methyl-9-azabicyclo[3.3.1]nonan-3-yl)morpholine-2-carboxamide]",4 nM

# Same assay, conditions: HEK293-Blue-hTLR-7 cells, R848 ligand, 20 hrs incubation; read-out: TLR7 IC50
row,Compound,IC50
1,"C[C@@H]1CN(c2ccc(C#N)n3nccc23)C[C@H](C(=O)NC2(C)CCNCC2)O1 [Example 19, (2R,6R)-4-(7-cyanopyrazolo[1,5-a]pyridin-4-yl)-6-methyl-N-(4-methyl-4-piperidyl)morpholine-2-carboxamide]",99 nM
2,"C[C@@H]1CN(c2ccc(C#N)n3nccc23)C[C@H](C(=O)NC2CC3(CNC3)C2)O1 [Example 3, (2R,6R)-N-(2-azaspiro[3.3]heptan-6-yl)-4-(7-cyanopyrazolo[1,5-a]pyridin-4-yl)-6-methyl-morpholine-2-carboxamide]",160 nM
3,"C[C@@H]1CN(c2ccc(C#N)n3nccc23)C[C@H](C(=O)NC(C)(C)CO)O1 [Example 16, (2R,6R)-4-(7-cyanopyrazolo[1,5-a]pyridin-4-yl)-N-(2-hydroxy-1,1-dimethyl-ethyl)-6-methyl-morpholine-2-carboxamide]",460 nM
4,"COCCNC(=O)[C@H]1CN(c2ccc(C#N)n3nccc23)C[C@@H](C)O1 [Example 9, (2R,6R)-4-(7-cyanopyrazolo[1,5-a]pyridin-4-yl)-N-(2-methoxyethyl)-6-methyl-morpholine-2-carboxamide]",650 nM
5,"C[C@@H]1CN(c2ccc(C#N)n3nccc23)C[C@H](C(=O)N[C@H]2CC[C@@H](O)CC2)O1 [Example 20, Cis-(2R,6R)-4-(7-cyanopyrazolo[1,5-a]pyridin-4-yl)-N-(4-hydroxycyclohexyl)-6-methyl-morpholine-2-carboxamide]",350 nM
6,"C[C@@H]1CN(c2ccc(C#N)n3nccc23)C[C@H](C(=O)NC2CC3COCC(C2)N3)O1 (stereo partly drawn) [Example 22, Endo-(2R,6R)-4-(7-cyanopyrazolo[1,5-a]pyridin-4-yl)-6-methyl-N-[3-oxa-9-azabicyclo[3.3.1]nonan-7-yl]morpholine-2-carboxamide]",10 nM
7,"C[C@@H]1CN(c2ccc(C#N)n3nccc23)C[C@H](C(=O)NC2CCN(C)CC2)O1 [Example 1, (2R,6R)-4-(7-cyanopyrazolo[1,5-a]pyridin-4-yl)-6-methyl-N-(1-methyl-4-piperidyl)morpholine-2-carboxamide]",17 nM
8,"C[C@@H]1CN(c2ccc(C#N)n3nccc23)C[C@H](C(=O)N2CC(N)C2)O1 [Example 8, 4-[(2R,6R)-2-(3-aminoazetidine-1-carbonyl)-6-methyl-morpholin-4-yl]pyrazolo[1,5a]pyridine-7-carbonitrile]",190 nM
9,"C[C@@H]1CN(c2ccc(C#N)n3nccc23)C[C@H](C(=O)N[C@H]2CNC[C@H]2F)O1 [Example 2, (2R,6R)-4-(7-cyanopyrazolo[1,5-a]pyridin-4-yl)-N-[(3S,4R)-4-fluoropyrrolidin-3-yl]-6-methyl-morpholine-2-carboxamide]",91 nM
10,"CCC(C)(C)NC(=O)[C@H]1CN(c2ccc(C#N)n3nccc23)C[C@@H](C)O1 [Example 17, (2R,6R)-4-(7-cyanopyrazolo[1,5-a]pyridin-4-yl)-N-(1,1-dimethylpropyl)-6-methyl-morpholine-2-carboxamide]",360 nM
11,"C[C@@H]1CN(c2ccc(C#N)n3nccc23)C[C@H](C(=O)NC2CCOCC2)O1 [Example 4, (2R,6R)-4-(7-cyanopyrazolo[1,5-a]pyridin-4-yl)-6-methyl-N-tetrahydropyran-4-yl-morpholine-2-carboxamide]",410 nM
12,"C[C@@H]1CN(c2ccc(C#N)n3nccc23)C[C@H](C(=O)NC2CNC[C@H]2F)O1 (stereo partly drawn) [Example 5, Cis-(2R,6R)-4-(7-cyanopyrazolo[1,5-a]pyridin-4-yl)-6-methyl-N-(4-fluoropyrrolidin-3-yl) morpholine-2-carboxamide]",73 nM

# The remaining lines, values ahead:
row,IC50,Compound
1,130 nM,"C[C@@H]1CN(c2ccc(C#N)n3nccc23)C[C@H](C(=O)NC2CC3CC2CN3)O1 (stereo partly drawn) [Example 36, (2R,6R)-N-(2-azabicyclo[2.2.1]heptan-5-yl)-4-(7-cyanopyrazolo[1,5-a]pyridin-4-yl)-6-methyl-morpholine-2-carboxamide]"
2,9 nM,"C[C@@H]1CN(c2ccc(C#N)n3nccc23)C[C@H](C(=O)NC2C3CCCC2CNC3)O1 (stereo partly drawn) [Example 37, (2R,6R)-N-(3-azabicyclo[3.3.1]nonan-9-yl)-4-(7-cyanopyrazolo[1,5-a]pyridin-4-yl)-6-methyl-morpholine-2-carboxamide]"
3,20 nM,"C[C@@H]1CN(c2ccc(C#N)n3nccc23)C[C@H](C(=O)NC2C3CCC2CNC3)O1 (stereo partly drawn) [Example 26, (2R,6R)-N-(3-azabicyclo[3.2.1]octan-8-yl)-4-(7-cyanopyrazolo[1,5-a]pyridin-4-yl)-6-methyl-morpholine-2-carboxamide]"
4,63 nM,"C[C@@H]1CN(c2ccc(C#N)n3nccc23)C[C@H](C(=O)NC2C3CNCC2COC3)O1 (stereo partly drawn) [Example 27, (2R,6R)-4-(7-cyanopyrazolo[1,5-a]pyridin-4-yl)-6-methyl-N-(3-oxa-7-azabicyclo[3.3.1]nonan-9-yl)morpholine-2-carboxamide]"
5,64 nM,"C[C@H]1C[C@@H](NC(=O)[C@H](C)N)CN(c2ccc(C#N)n3nccc23)C1 [Example 44, (2S)-2-amino-N-[(3R,5S)-1-(7-cyanopyrazolo[1,5-a]pyridin-4-yl)-5-methyl-3-piperidyl]propanamide]"
6,46 nM,"C[C@@H]1CN(c2ccc(C#N)n3nccc23)C[C@H](C(=O)NC(C)(C)CN)O1 [Example 41, (2R,6R)-N-(2-amino-1,1-dimethyl-ethyl)-4-(7-cyanopyrazolo[1,5-a]pyridin-4-yl)-6-methyl-morpholine-2-carboxamide]"
7,320 nM,"C[C@@H]1CN(c2ccc(C#N)n3nccc23)C[C@H](C(=O)N2CCC3(CCNCC3)CC2)O1 [Example 28, 4-[(2R,6R)-2-(3,9-diazaspiro[5.5]undecane-3-carbonyl)-6-methyl-morpholin-4-yl]pyrazolo[1,5a]pyridine-7-carbonitrile]"
8,8 nM,"C[C@@H]1CN(c2ccc(C#N)n3ncc(F)c23)C[C@H](C(=O)NC2CCN(C)CC2)O1 [Example 47, (2R,6R)-4-(7-cyano-3-fluoro-pyrazolo[1,5-a]pyridin-4-yl)-6-methyl-N-(1-methyl-4-piperidyl)morpholine-2-carboxamide]"
9,27 nM,"C[C@@H]1CN(c2ccc(C#N)n3nccc23)C[C@H](C(=O)NC2CC3CCC(C2)N3)O1 (stereo partly drawn) [Example 23, Exo-(2R,6R)-N-[8-azabicyclo[3.2.1]octan-3-yl]-4-(7-cyanopyrazolo[1,5-a]pyridin-4-yl)-6-methyl-morpholine-2-carboxamide]"
10,30 nM,"C[C@@H]1CN(c2ccc(C#N)n3nccc23)C[C@H](C(=O)NCC(C)(C)CN)O1 [Example 39, (2R,6R)-N-(3-amino-2,2-dimethyl-propyl)-4-(7-cyanopyrazolo[1,5-a]pyridin-4-yl)-6-methyl-morpholine-2-carboxamide]"
11,34 nM,"C[C@H]1C[C@@H](N)CN(c2ccc(C#N)n3nccc23)C1 [Example 43, 4-[(3R,5S)-3-amino-5-methyl-1-piperidyl]pyrazolo[1,5-a]pyridine-7-carbonitrile]"
